These results are taken from patent US20110212978A1 (AstraZeneca AB, priority 2005, published 2011).

The test system of one experiment is MX-1 tumour xenografts. Briefly: MX-1 human tumour xenograft growth in female athymic mice. The note with it: female nude mice; for Day 14 Median tumour volume / Day 14 geometric mean tumour volume: Day 14 after implantation (randomisation, start of treatment), ZD6474 25 mg/kg/day p.o., pemetrexed 75 mg/kg i.p.; for Day 28 Median tumour volume / Day 28 geometric mean tumour volume: ZD6474 25 mg/kg/day p.o. once daily, pemetrexed 75 mg/kg i.p. once daily days 14-18 and 21-25. Format: in vivo. The protocol: Tumour implantation procedures were performed on mice of at least 5 weeks of age. Human tumour xenografts were grown in female athymic (nu/nu genotype, Swiss) mice. MX-1 tumour fragments were implanted into athymic mice and allowed to grow to 0.7-1 cm^3 to provide donor tumour tissue. The donor tumours were surgically excised and smaller tumour fragments (20-30 mg) were implanted subcutaneously (s.c.) in the right flanks of the experimental athymic mice. When the mean tumour volume reached 0.1-0.3 cm^3, randomisation was carried out. […] An additional group of animals received a combination of pemetrexed and ZD6474, using the same doses and schedules as used for single agent treatment.
Tumour volumes were assessed at least twice weekly by bilateral Vernier caliper measurement. Growth inhibition from the start of treatment was assessed by comparison of the differences in tumour volume between control and treated groups.
Experiments were conducted on female athymic mice (Swiss nu/nu genotype, >6 weeks of age). MX-1 human tumour xenografts were established in mice from tumour cell implants. The donor tumours were surgically excised when they reached a volume of 0.7-1 cm^3, divided into fragments and frozen until further use. At the start of the experiment, fragments (approximately 30 mg) were thawed and implanted (subcutaneously in the dorsal flank) in the experimental animals. Tumour volumes were assessed at least twice weekly by bilateral Vernier calliper measurements. Mice were randomised into treatment groups when the tumour volume reached 0.1-0.2 cm^3. […] An additional group of animals received a combination of ZD6474 and pemetrexed, using the same doses and schedules as used for single agent treatment.
Tumour growth inhibition (TGI) from the start of treatment was assessed by comparison of the differences in tumour volume between control and treated groups.

The test system of the next experiment is VEGF RTK. The note with it: cited from earlier work.
In another experiment the test system is tumour growth. The note with it: range of models, once-daily oral administration; cited from earlier work.

Consider `Nc1nc2[nH]cc(CCc3ccc(C(=O)N[C@@H](CCC(=O)[O-])C(=O)[O-])cc3)c2c(=O)[nH]1.[Na+].[Na+]` [pemetrexed, L-Glutamic acid, N-[4-[2-(2-amino-4,7-dihydro-4-oxo-1H-pyffolo[2,3-d]pyrimidin-5-yl)ethyl]benzoyl]-, disodium salt, hetpahydrate], for which, in the experiment with MX-1 tumour xenografts, the “Day 14 Median tumour volume” value turned out to be 0.147 cm^3, the “Day 14 geometric mean tumour volume” value was 0.146 cm^3, the “Day 28 Median tumour volume” value turned out to be 0.794 cm^3 and the “Day 28 geometric mean tumour volume” value was determined as 0.751 cm^3.

`COc1cc2c(Nc3ccc(Br)cc3F)ncnc2cc1OCC1CCN(C)CC1` [ZD6474, 4-(4-bromo-2-fluoroanilino)-6-methoxy-7-(1-methylpiperidin-4-ylmethoxy)quinazoline]: the “Inhibition of VEGF RTK” value in the experiment with VEGF RTK is reported as “potent inhibitor”. Besides, in the experiment with MX-1 tumour xenografts, the “Day 14 Median tumour volume” value stood at 0.148 cm^3, the “Day 14 geometric mean tumour volume” value was 0.148 cm^3, the “Day 28 Median tumour volume” value was 0.967 cm^3 and the “Day 28 geometric mean tumour volume” value is reported as 0.702 cm^3. In the experiment with tumour growth, the Anti-tumour activity result is “broad-spectrum anti-tumour activity”.
